{"source": "paper PMC9738107", "about": "“Targeting of the ELR+CXCL/CXCR1/2 Pathway Is a Relevant Strategy for the Treatment of Paediatric Medulloblastomas” (Cells, 2022)", "format_in_all_cases": "cell-based, human", "key": {"[1]": {"system": "Daoy, ONS-76, HD-MB03, and D341Med wild-type cells", "test": "Cell proliferation assay (cell counting)", "details": "1 µM C29, pre-incubation prior to cell seeding, all tested cell lines", "procedure": "To confirm the efficacy of C29 on various parameters of cancer cell aggressiveness, we first performed cell proliferation assays at longer time points.\nFigure 4 C29 reduces proliferation, migration, and invasion of naïve MB cells. (A) Proliferation of Daoy, ONS-76, HD-MB03, and D341Med wild-type cells after treatment with 1 μM C29 or the control (DMSO), n = 3. (B) Clonogenic assay on Daoy (n = 4), ONS-76 (n = 3) and HD -MB03 (n = 5) cells after treatment with control (DMSO) or C29 (1 μM or 2.5 μM). Scale = 500 μm. (C) Cell migration through the Boyden chamber of Daoy and ONS-76 cells specifically attracted by 200 ng/mL CXCL8. Results are expressed as percentage of control (DMSO) (n = 3). […] Results are expressed as percentage of day 0, n = 4. […]\n(§1) 1500 Daoy, ONS ‐76, HD ‐MB03 or D341 Med cells were sown in triplicate in plates with six wells and the cells were counted daily for 8 days using a Coulter counter (Ville‐ pinte). The relative number of cells (compared to day 1) was determined daily. […]\nY = Y0 * exp(k * X) (Y= Cell number at day X; Y0= Cell number at day 0 (graphically calculated); X= Day following cell plating (cells plated at X0=0); k= Exponential growth constant rate. Doubling times were compared. […]\nwere seeded in 6‐well plates. […] Cell death was detected by PE chan‐ nel using FACS Cytoflex (Beckman) immediately after labelling the cells with 1ug/ml pro‐ pidium iodide (Miltenyi Biotec). […]"}, "[2]": {"system": "radiation resistant Daoy cells (DR1, DR2)", "test": "Clonogenic assay", "procedure": "(§2) Figure 8 C29 is efficient on radioresistant MB cell lines. (A) Cell death after 48 h of treatment with control (DMSO, CT) or C29 1, 2.5, or 5 µM on radiation-resistant cells (RR) and normal cells (N), n = 3. Statistics were performed using the one-way method ANOVA. * p < 0.05, ** p < 0.01, *** p < 0.001. For this figure, DR1 = D1, DR2 = D2, HR1 = H1, HR2 = H2, and C8D1A = C8. (B) Proliferation of DR1/DR2 (A) and HR1/HR2 (B) radio-resistant cells after 1 µM C29 treatment or control (DMSO), n = 3. (C) Clonogenic assay on DR1, DR2 (n = 3) and HR1, HR2 (n = 3) cells after treatment with control (DMSO) or C29 (1 µM or 2.5 µM). (D) Cell migration through the Boyden chamber of DR1 and DR2 cells specifically attracted by 200 ng/mL CXCL8. Cells were treated with control (DMSO) or C29 (1 and 2.5 µM). Results are expressed as percentage of control (n = 3). Scale = 1000 μm. Statistics were performed using Student t-test for 2 comparisons only or ANOVA test for multiple comparisons. * p < 0.05, ** p < 0.01, *** p < 0.001. […]\n(§3) each month by using PlasmoTest Kit (#10L07‐MM, InvivoGen, Toulouse, France). Daoy and ONS‐76 belong to the Shh genetic subgroup, D341‐Med and HD‐MB03 to group 3. […]\n(§4) 150 Daoy/DR1/DR2/ ONS ‐ 76 and 300 HD ‐ MB03/HR1/HR2 cells were seeded in trip‐ licate in 6‐well plates in the presence or absence of treatment (1 or 2∙5μM […] or DMSO as control). On day 9 (Daoy/ONS‐76) and day 11 (HD ‐MB03), cells were fixed in ice‐cold absolute ethanol (Sigma) for 20 min, washed with PBS and then stained with Giemsa 50% for 30 min. The number of clones was quantified using ImageJ software. We only considered clones containing more than 50 cells. […]\nViolet. […]\n(§5) 5000 cells were plated in 48 multi‐well plates coated with agarose 0∙8%. After two days, spheroids were mixed with 100μl of matrigel mix (200μl of matrigel (Corning Mat‐ rigel Matrix, Fontenay‐sous‐Bois, France), 100 μl collagen I (8 mg/ml, Corning), 80 μl HEPES 1M and 320μl respective medium) in 12 multi‐well plates. […]"}, "HR2 cells": {"system": "HR2 cells", "test": "Clonogenic assay", "details": "HR2, 2.5 µM", "procedure": "as §2, §3, §4\nViolet. […]\nas §5"}, "[3]": {"system": "DR1/DR2 and HR1/HR2 radio-resistant cells", "test": "Cell proliferation assay (cell counting), radiation-resistant cells", "details": "1 µM", "procedure": "as §2, with “(D) Cell migration through the Boyden chamber of DR1 and DR2 cells specifically attracted by 200 ng/mL CXCL8. Cells were treated with control (DMSO) or C29 (1 and 2.5 µM).” left out, “3).” for “3). Scale = 1000 μm. Statistics were performed using Student t-test for 2 comparisons only or ANOVA test for multiple comparisons. * p < 0.05, ** p < 0.01, *** p < 0.001.”\nas §1\nY = Y0 * exp(k * X) (Y= Cell number at day X; Y0= Cell number at day 0 (graphically calculated); X= Day following cell plating (cells plated at X0=0); k= Exponential growth constant rate. Doubling times were compared.\n150 Daoy/DR1/DR2/ ONS ‐ 76 and 300 HD ‐ MB03/HR1/HR2 cells were seeded in trip‐ licate in 6‐well plates in the presence or absence of treatment (1 or 2∙5μM MCK140 or DMSO as control). […] The number of clones was quantified using ImageJ software. […]"}}}
{"molecule": "O=C(Nc1cccc(Cl)c1)Nc1nc2ccc([N+](=O)[O-])cc2s1", "note": "[C29, 1-(3-chlorophenyl)-3-(6-nitrobenzo[d]thiazol-2-yl) urea]", "values": [{"measurement": "Proliferation", "setting": "[1]", "value": "completely inhibited proliferation"}, {"measurement": "Clone formation", "setting": "[2]; DR1, DR2, 1 µM", "value": "effective"}, {"measurement": "Clone formation", "setting": "[2]; DR1, DR2, 2.5 µM", "value": "completely prevented clone formation"}, {"measurement": "Clone formation", "setting": "HR2 cells", "value": "significantly reduced clone formation"}, {"measurement": "Proliferation", "setting": "[3]", "value": "reduce proliferation"}]}
